Legend:
[1] = Competitive slurries of Form A and Form B in a range of solvents; assay type: physicochemical
Description: Form B also has a much higher melting endotherm.

[2] = Conversion of the crystalline form in aqueous media; assay type: physicochemical
Description: International patent application PCT/GB2006/002471 (WO2007/007041) discloses the Agent in 2 different crystalline forms (Example 39k). […] This form will hereinafter be referred to as Form A′. The preparation of Form A is also described in the Example hereinafter.
This form of the Agent will hereinafter be referred to as Form B.

| relative stability of crystalline forms in competitive slurries [1] | conversion to other forms in aqueous media [2] | Structure (SMILES) |
| --- | --- | --- |
|  | convert to the amorphous form | CC(C)Oc1cc(Oc2cnc(C(=O)N3CCC3)cn2)cc(C(=O)Nc2cc[nH]n2)c1 [Form A′, 3-{[5-(azetidin-1-ylcarbonyl)pyrazin-2-yl]oxy}-5-[(1-methylethyl)oxy]-N-1H-pyrazol-3-ylbenzamide] |
|  | convert to the amorphous form | CC(C)Oc1cc(Oc2cnc(C(=O)N3CCC3)cn2)cc(C(=O)Nc2cc[nH]n2)c1 [Form A, 3-{[5-(Azetidin-1-ylcarbonyl)pyrazin-2-yl]oxy}-5-[(1-methylethyl)oxy]-N-1H-pyrazol-3-ylbenzamide] |

| Structure (SMILES) | relative stability of crystalline forms in competitive slurries [1] | conversion to other forms in aqueous media [2] |
| --- | --- | --- |
| CC(C)Oc1cc(Oc2cnc(C(=O)N3CCC3)cn2)cc(C(=O)Nc2cc[nH]n2)c1 [Form B, 3-{[5-(azetidin-1-ylcarbonyl)pyrazin-2-yl]oxy}-5-[(1-methylethyl)oxy]-N-1H-pyrazol-3-ylbenzamide] | most stable form | does not significantly convert to other forms |
